Measured values taken from BigSolDB 2.1.

CNC(=O)c1cc(Oc2ccc(N)cc2)ccn1
solubility (mole fraction)
Conditions	in THF	in acetone	in acetonitrile	in acetylacetone	in dichloromethane	in ethyl acetate	in methanol	in n-butanol	in n-propanol	in water
278.15 K	0.0919	0.046	0.0286	0.0202	0.00511	0.0568	0.00985	0.0041	0.00552	0.000327
283.15 K	0.0992	0.0481	0.033	0.0214	0.00821	0.0667	0.0126	0.0047	0.00674	0.00035
288.15 K	0.108	0.0514	0.0401	0.0232	0.0139	0.0793	0.0162	0.00592	0.00879	0.000387
293.15 K	0.119	0.0558	0.0497	0.0256	0.0211	0.0939	0.0212	0.00796	0.0114	0.000438
298.15 K	0.13	0.0616	0.0601	0.0285	0.0297	0.112	0.0285	0.0101	0.0145	0.000506
303.15 K	0.144	0.0683	0.0737	0.0321	0.0413	0.131	0.0378	0.0135	0.0185	0.000598
308.15 K	0.159	0.0766	0.091	0.0367	0.0549	0.154	0.0497	0.0174	0.0241	0.000715
313.15 K	0.174	0.086	0.11	0.042	0.0727	0.181	0.0642	0.0225	0.0312	0.000857
318.15 K	0.194	0.0975	0.134	0.048	0.0947	0.209	0.0825	0.0287	0.0398	0.00106
323.15 K	0.214	0.112	0.161	0.0558	0.123	0.242	0.106	0.0369	0.0507	0.00133
